According to patent US20070203066A1, “Compositions and methods for inhibiting cellular proliferation” (priority 2005, published 2007):
Primed or numbered codes have the meaning given here. No end group written: not given here. Ida(3) = iminodiacetic acid linker, Lys side-chain amines bound to its two carboxyl groups; Ida(4) = iminodiacetic acid linker (dimerization linker bound to lysine side chain); ATA = not defined here

Tested on: HUVECs
Type: cell-based
Settings: HUVEC proliferation, bFGF at 10 ng/ml or VEGF at 5 ng/ml, 48 hours, BrdU incorporation; read-out: IC50 on HUVECs
Procedure, shortened: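 HUVECs seeded at 5,000 cells/well in EBM with 2% FCS, adhered ≥12 hours, then stimulated with bFGF 10 ng/ml or VEGF 5 ng/ml plus varying peptide concentrations. After 48 hours at 37 ° C, 5% CO2, proliferation inhibition read by BrdU incorporation.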

Substance	IC50 [µM]
439 (Ac-RRRRPQAVAIYFK(Ida(4)); not fully specified (C-terminus); also: homodimer via Ida linker at K13) [compound 439]	< 10
440 (Ac-RRRRSQAVAIYFK(Ida(4)); not fully specified (C-terminus); also: homodimer via Ida linker at K13) [compound 440]	< 10
441 (Ac-RRRRTQAVAIYFK(Ida(4)); not fully specified (C-terminus); also: homodimer via Ida linker at K13) [compound 441]	< 10
442 (Ac-RRRRVQAVAIYFK(Ida(4)); not fully specified (C-terminus); also: homodimer via Ida linker at K13) [compound 442]	< 10
443 (Ac-RRRRWQAVAIYFK(Ida(4)); not fully specified (C-terminus); also: homodimer via Ida linker at K13) [compound 443]	< 10
444 (Ac-RRRRYQAVAIYFK(Ida(4)); not fully specified (C-terminus); also: homodimer via Ida linker at K13) [compound 444]	< 10
446 (Ac-RRRRRQAVAIYFK(ATA); reading uncertain; also: homotrimer via Ata linker at K13) [compound 446]	< 10
448 (Ac-RRRRRQAAAAAAK(Ida(4)); not fully specified (C-terminus); also: homodimer via Ida linker at K13) [compound 448]	> 30
449 (Ac-RRRRRAAAAAAAK(Ida(4)); not fully specified (C-terminus); also: homodimer via Ida linker at K13) [compound 449]	> 30
450 (Ac-ARRRRQAVAILFK-NH2; not fully specified (residue 13); also: homodimer via Ida linker at K13) [compound 450]	< 10
451 (Ac-NRRRRQAVAIVFK-NH2; also: homodimer via Ida linker at K13) [compound 451]	> 30
452 (Ac-PRRRRQAVAIVFK-NH2; not fully specified (residue 13); also: homodimer via Ida linker at K13) [compound 452]	< 10
453 (Ac-QRRRRQAVAIVFK-NH2; not fully specified (residue 13); also: homodimer via Ida linker at K13) [compound 453]	< 10
454 (Ac-SRRRRQAVAIVFK-NH2; not fully specified (residue 13); also: homodimer via Ida linker at K13) [compound 454]	< 10
455 (Ac-TRRRRQAVAIVFK-NH2; not fully specified (residue 13); also: homodimer via Ida linker at K13) [compound 455]	< 10
456 (Ac-KRRRRQAVAIVF; not fully specified (residue 1); also: homodimer via Ida linker on K1 side chain) [compound 456]	> 30
457 (Ac-PRRRRQAVAIYFK(ATA); reading uncertain; also: homotrimer via Ata linker on Lys13 side chain) [compound 457]	> 30
458 (Ac-KARRRRQAVAIYF; not fully specified (residue 1); also: homodimer via Ida linker on Lys side chains, linker at 1 via Ida, other end not in the chain) [compound 458]	> 30
459 (Ac-KRRRRQAVAIYF; not fully specified (residue 1); also: homodimer via Ida linker on Lys side chains, linker at 1 via Ida, other end not in the chain) [compound 459]	> 30
460 (Ac-ARRK(Ida(3))RQAVAIYF; also: homodimer via Ida linker on Lys side chains, linker at 4 via Ida, other end not in the chain) [compound 460]	10 to 30
461 (Ac-ARRRK(Ida(3))QAVAIYF; also: homodimer via Ida linker on Lys side chains, linker at 5 via Ida, other end not in the chain) [compound 461]	10 to 30
462 (Ac-ARRRRK(Ida(3))AVAIYF; also: homodimer via Ida linker on Lys side chains, linker at 6 via Ida, other end not in the chain) [compound 462]	10 to 30
463 (Ac-ARRARQAVAIYFK(Ida(3)); not fully specified (C-terminus); also: homodimer via Ida linker on Lys side chains, linker at 13 via Ida, other end not in the chain) [compound 463]	< 10

Substance	IC50 [µM]
464 (Ac-ARRERQAVAIYFK(Ida(3)); not fully specified (C-terminus); also: homodimer via Ida linker on Lys side chains, linker at 13 via Ida, other end not in the chain) [compound 464]	< 10
465 (Ac-ARRQRQAVAIYFK(Ida(3)); not fully specified (C-terminus); also: homodimer via Ida linker on Lys13 side chain) [compound 465]	< 10
466 (Ac-AK(Ida(3))RRRQAVAIYF; also: homodimer via Ida linker on Lys2 side chain) [compound 466]	> 30
467 (Ac-ARK(Ida(3))RRQAVAIYF; also: homodimer via Ida linker on Lys3 side chain) [compound 467]	> 30
468 (Ac-ARRIRQAVAIYFK(Ida(3)); not fully specified (C-terminus); also: homodimer via Ida linker on Lys13 side chain) [compound 468]	> 30
469 (Ac-ARRRRQRVAIYFKARRRRQRVAIYFK; not fully specified) [compound 469]	< 10
470 (Ac-PRRRDQAVAIYFK(Ida(3)); not fully specified (C-terminus); also: homodimer via Ida linker on Lys13 side chain) [compound 470]	> 30
471 (Ac-PRRRFQAVAIYFK(Ida(3)); not fully specified (C-terminus); also: homodimer via Ida linker on Lys13 side chain) [compound 471]	> 30
472 (Ac-PRRRGQAVAIYFK(Ida(3)); not fully specified (C-terminus); also: homodimer via Ida linker on Lys13 side chain) [compound 472]	> 30
473 (Ac-PRRRLQAVAIYFK(Ida(3)); not fully specified (C-terminus); also: homodimer via Ida linker on Lys13 side chain) [compound 473]	> 30
474 (Ac-PRRRMQAVAIYFK(Ida(3)); not fully specified (C-terminus); also: homodimer via Ida linker on Lys13 side chain) [compound 474]	10 to 30
475 (Ac-PRRRNQAVAIYFK(Ida(3)); not fully specified (C-terminus); also: homodimer via Ida linker on Lys13 side chain) [compound 475]	< 10
476 (Ac-PRRRPQAVAIYFK(Ida(3)); not fully specified (C-terminus); also: homodimer via Ida linker on Lys13 side chain) [compound 476]	< 10
477 (Ac-PRRRSQAVAIYFK(Ida(3)); not fully specified (C-terminus); also: homodimer via Ida linker on Lys13 side chain) [compound 477]	10 to 30
478 (Ac-PRRRTQAVAIYFK(Ida(3)); not fully specified (C-terminus); also: homodimer via Ida linker on Lys13 side chain) [compound 478]	10 to 30
479 (Ac-PRRRVQAVAIYFK(Ida(3)); not fully specified (C-terminus); also: homodimer via Ida linker on Lys13 side chain) [compound 479]	10 to 30
480 (Ac-PRRRWQAVAIYFK(Ida(3)); not fully specified (C-terminus); also: homodimer via Ida linker on Lys13 side chain) [compound 480]	10 to 30
481 (Ac-PRRRYQAVAIYFK; not fully specified (residue 13, C-terminus); also: homodimer via Ida linker on Lys13 side chain) [compound 481]	10 to 30
482 (Ac-PRRRRQAVAIKF; not fully specified (residue 11); also: homodimer via Ida linker on Lys11 side chain) [compound 482]	< 10
483 (Ac-QRRRRQAVAIKF; not fully specified (residue 11); also: homodimer via Ida linker on Lys11 side chain) [compound 483]	< 10
484 (Ac-ARRRNQAVAIKF; not fully specified (residue 11); also: homodimer: Lys11 side chain bound to Ida linker (Boc on Ida N)) [compound 484]	< 10
485 (Ac-ARRRPQAVAIKF; not fully specified (residue 11); also: homodimer: Lys11 side chain bound to Ida linker (Boc on Ida N)) [compound 485]	< 10
486 (Ac-ARRRRQSVAIKF; not fully specified (residue 11); also: homodimer: Lys11 side chain bound to Ida linker (Boc on Ida N)) [compound 486]	< 10
